CS(=O)(=O)c1ccc(C(=O)C2C(=O)CCCC2=O)c([N+](=O)[O-])c1
solubility (mole fraction)
Conditions | 283.15 K | 288.15 K | 293.15 K | 298.15 K | 303.15 K | 308.15 K | 313.15 K | 318.15 K | 323.15 K
in 2-pentanol | 0.000571 | 0.00081 | 0.00114 | 0.00158 | 0.00216 | 0.00294 | 0.00396 | 0.00561 | 0.00671
in MTBE | 0.000245 | 0.000282 | 0.000322 | 0.000367 | 0.000397 | 0.000473 | 0.000536 | 0.000606 | 0.000684
in cyclohexane | 0.000321 | 0.000402 | 0.000486 | 0.000616 | 0.000733 | 0.000888 | 0.00104 | 0.00122 | 0.00168
in ethanol | 0.0023 | 0.00264 | 0.00316 | 0.00386 | 0.00455 | 0.00535 | 0.00627 | 0.00734 | 0.00857
in ethyl acetate | 0.000565 | 0.000707 | 0.000879 | 0.00109 | 0.00132 | 0.00163 | 0.00198 | 0.00239 | 0.00287
in methanol | 0.00351 | 0.00401 | 0.00457 | 0.00518 | 0.00567 | 0.00663 | 0.00748 | 0.00842 | 0.00946
in methyl acetate | 0.00134 | 0.00152 | 0.00173 | 0.00194 | 0.00225 | 0.00255 | 0.00293 | 0.0033 | 0.00381
in n-butanol | 0.000708 | 0.000999 | 0.00139 | 0.00193 | 0.00273 | 0.00355 | 0.00476 | 0.00601 | 0.00731
in n-butyl acetate | 0.000418 | 0.000529 | 0.000664 | 0.000829 | 0.00103 | 0.00127 | 0.00155 | 0.0019 | 0.00231
in n-pentanol | 0.000635 | 0.000889 | 0.00123 | 0.00168 | 0.00228 | 0.00306 | 0.00407 | 0.00536 | 0.007
in n-propanol | 0.0013 | 0.00168 | 0.00216 | 0.00274 | 0.00376 | 0.00434 | 0.0054 | 0.00669 | 0.00793
in sec-butanol | 0.000341 | 0.000507 | 0.000745 | 0.00108 | 0.00145 | 0.00199 | 0.00307 | 0.00425 | 0.00584

From BigSolDB 2.1
